Consider 22 molecules from patent US12570988B2, “Aptamers that bind thiamine analogs and derivatives” (MeiraGTx Gene Regulation Limited, priority 2020, dated 2026).

The subject of assay [1] is riboswitch 15D10. In words: Luciferase reporter with 15D10 riboswitch (Luci-15D10) in AML12 cells. The class given is cell-based, mouse. Conditions: for relative potency in inducing luciferase expression: AML 12 cells, compared with fursultiamine or within groups; for fold induction at 50 µM: Mus musculus, AML12, 24 h, read-out: Fold increase in riboswitch 15D10-regulated luciferase expression, AML; for fold induction at 50 µM / Fold increase in riboswitch 15D10-regulated luciferase expression, AML: AML12 cells, Table 2, 50 μM.

Assay [2] has as its system riboswitch 15D10. In words: Luciferase reporter with 15D10 riboswitch (Luci-15D10) in HEK 293 cells. Format: cell-based, human. The note with it: HEK 293 cells; for effect on luciferase expression from Luci-15D10: FIG. 9A, 9C; for fold induction at 50 µM: Homo sapiens, HEK293, 24 h, read-out: Fold increase in riboswitch 15D10-regulated luciferase expression, HEK; for fold induction at 50 µM / Fold increase in riboswitch 15D10-regulated luciferase expression, HEK: Table 2, 50 μM. On the procedure: Transfection: 3.5×10^4 human embryonic kidney (HEK) 293 cells were plated in a 96-well flat bottom plate the day before transfection. Plasmid DNA (500 ng) was added to a tube or a 96-well U-bottom plate. […] Then, 50 μL of this diluted transfection reagent was added to the DNA, mixed, and incubated at RT for 20 min. Finally, 7 μL of this solution was added to a well of cells in the 96-well plate. Four hours after transfection, medium containing transfection solution was replaced by medium containing either TPP, fursultiamine, prosultiamine, bisbentiamine, beclotiamine hydrochloride, or sulbutiamine as aptamer inducers.
Firefly luciferase assay of cultured cells: Twenty-four hours after media change, plates were removed from the incubator, and equilibrated to RT for several minutes on a lab bench, then aspirated. Glo-lysis buffer (Promega, 100 μL, RT) was added, and the plates allowed to remain at RT for at least 5 minutes. Then, the well contents were mixed by 50 μL trituration, and 20 μL of each sample was mixed with 20 μL of bright-glo reagent (Promega) that had been diluted to 10% in glo-lysis buffer. 96 wells were spaced on an opaque white 384-well plate. Following a 5 min incubation at RT, luminescence was measured using a Tecan machine with 500 ms read time. The luciferase activity was expressed as mean arbitrary light units (ALU)±S.D., and fold induction was calculated as the quotient of the luciferase activity obtained from cells with TPP or analog treatment divided by the luciferase activity obtained from cells without TPP or analog treatment.
In general terms: Reporter assays use an easily measured gene product as a stand-in for the process of interest.

The structures appear in SMILES notation.

Regarding `C/C(=C(\CCO)SCOC(=O)C(C)C)N(C=O)Cc1cnc(C)nc1N` [Compound M16, (Z)-((2-(N-((4-Amino-2-methylpyrimidin-5-yl)methyl)formamido)-5-hydroxypent-2-en-3-yl)thio)methyl isobutyrate], in the assay with riboswitch 15D10 [1], the “relative potency in inducing luciferase expression” value (“relative potency” for short) is recorded as “more potent than fursultiamine”. For the same molecule, in the assay on riboswitch 15D10 [2], the “effect on luciferase expression from Luci-15D10” value (“effect on luciferase expression” for short) is listed as “increased”.

Take `C/C(=C(\CCO)SC(C)OC(=O)C(C)(C)C)N(C=O)Cc1cnc(C)nc1N` (stereo not drawn) [Compound M18, (Z)-1-((2-(N-((4-Amino-2-methylpyrimidin-5-yl)methyl)formamido)-5-hydroxypent-2-en-3-yl)thio)ethyl pivalate]: the “effect on luciferase expression” value with riboswitch 15D10 [2] was “increased”. The same measure, in the same setting: the same measure for `C/C(=C(\CCO)SC(=O)c1ccccc1)N(C=O)Cc1cnc(C)nc1N` [Compound M26, (Z)—S-(2-(N-((4-Amino-2-methylpyrimidin-5-yl)methyl)formamido)-5-hydroxypent-2-en-3-yl) benzothioate]: “increased luciferase expression”. On the same count and under the same terms, the entry for `C/C(=C(\CCO)SC(=O)C(C)C)N(C=O)Cc1cnc(C)nc1N` [Compound M27, (Z)—S-(2-(N-((4-Amino-2-methylpyrimidin-5-yl)methyl)formamido)-5-hydroxypent-2-en-3-yl) 2-methylpropanethioate] is “increased luciferase expression”; for `C/C(=C(\CCO)SC(=O)C(C)(C)C)N(C=O)Cc1cnc(C)nc1N` [Compound M28, (Z)—S-(2-(N-((4-Amino-2-methylpyrimidin-5-yl)methyl)formamido)-5-hydroxypent-2-en-3-yl) 2,2-dimethylpropanethioate] it is “increased luciferase expression”. Same read-out and setting: the same measure for `COc1ccc(C(=O)S/C(CCO)=C(/C)N(C=O)Cc2cnc(C)nc2N)cc1` [Compound M29, (Z)—S-(2-(N-((4-Amino-2-methylpyrimidin-5-yl)methyl)formamido)-5-hydroxypent-2-en-3-yl) 4-methoxybenzothioate]: “increased luciferase expression”. As for `C/C(=C(\CCO)SC(=O)c1c(Cl)cccc1Cl)N(C=O)Cc1cnc(C)nc1N` [Compound M30, (Z)—S-(2-(N-((4-Amino-2-methylpyrimidin-5-yl)methyl)formamido)-5-hydroxypent-2-en-3-yl) 2,6-dichlorobenzothioate], the “effect on luciferase expression” value in the assay on riboswitch 15D10 [2] is given as “no effect on luciferase expression”. Consider `C/C(=C(\CCOP(=O)(O)O)SC(=O)C(C)(C)C)N(C=O)Cc1cnc(C)nc1N` [Compound M31, (Z)—S-(2-(N-((4-Amino-2-methylpyrimidin-5-yl)methyl)formamido)-5-(phosphonooxy)pent-2-en-3-yl) 2,2-dimethylpropanethioate], for which the “effect on luciferase expression” value in the assay with riboswitch 15D10 [2] is given as “no effect on luciferase expression”. Same read-out and setting: the same measure for `C/C(=C(\CCOP(=O)(O)O)SC(=O)c1c(Cl)cccc1Cl)N(C=O)Cc1cnc(C)nc1N` [Compound M33, (Z)—S-(2-(N-((4-Amino-2-methylpyrimidin-5-yl)methyl)formamido)-5-(phosphonooxy)pent-2-en-3-yl) 2,6-dichlorobenzothioate]: “no effect on luciferase expression”. For the molecule `C/C(=C(\CCO)SC(=O)c1cccc2ccccc12)N(C=O)Cc1cnc(C)nc1N` [Compound M34, (Z)—S-(2-(N-((4-Amino-2-methylpyrimidin-5-yl)methyl)formamido)-5-hydroxypent-2-en-3-yl) naphthalene-1-carbothioate], in the assay on riboswitch 15D10 [1], the “relative potency” value is “most potent inducer” and the fold induction at 50 µM turned out to be 291. In the assay with riboswitch 15D10 [2], the “effect on luciferase expression” value is given as “increased luciferase expression” and the fold induction at 50 µM came out at 164. In the assay with riboswitch 15D10 [2] (compared with fursultiamine or within Formula V/VI groups), the “relative potency” value is reported as “most potent compound”. As for `C/C(=C(\CCO)SC(=O)c1ccc(C)c2ccccc12)N(C=O)Cc1cnc(C)nc1N` [Compound M37, (Z)—S-(2-(N-((4-amino-2-methylpyrimidin-5-yl)methyl)formamido)-5-hydroxypent-2-en-3-yl) 4-methylnaphthalene-1-carbothioate], the fold induction at 50 µM amounted to 134 in the assay on riboswitch 15D10 [1] and 76.2 with riboswitch 15D10 [2].

As for `CCOc1ccc2ccccc2c1C(=O)S/C(CCO)=C(/C)N(C=O)Cc1cnc(C)nc1N` [Compound M38, (Z)—S-(2-(N-((4-amino-2-methylpyrimidin-5-yl)methyl)formamido)-5-hydroxypent-2-en-3-yl) 2-ethoxynaphthalene-1-carbothioate], the results for the fold induction at 50 µM with riboswitch 15D10 [1] and in the assay on riboswitch 15D10 [2] were 1 and 1.2, respectively. On the same counts, the results for `C/C(=C(\CCO)SC(=O)c1ccc(Br)c2ccccc12)N(C=O)Cc1cnc(C)nc1N` [Compound M39, (Z)—S-(2-(N-((4-amino-2-methylpyrimidin-5-yl)methyl)formamido)-5-hydroxypent-2-en-3-yl) 4-bromonaphthalene-1-carbothioate] are 127 and 103.

For the molecule `C/C(=C(\CCO)SC(=O)c1cc2ccccc2c2ccccc12)N(C=O)Cc1cnc(C)nc1N` [Compound M40, (Z)—S-(2-(N-((4-amino-2-methylpyrimidin-5-yl)methyl)formamido)-5-hydroxypent-2-en-3-yl) phenanthrene-9-carbothioate], in the assay with riboswitch 15D10 [1], the “Fold increase in riboswitch 15D10-regulated luciferase expression, AML” value came out at 206.0 fold. Besides, the “Fold increase in riboswitch 15D10-regulated luciferase expression, HEK” value in the assay with riboswitch 15D10 [2] worked out at 83.1 fold. `C/C(=C(\CCO)SC(=O)c1cc2ccccc2c2ccccc12)N(C=O)Cc1cnc(C)nc1N` [Compound M43, (Z)—S-(2-(N-((4-amino-2-methylpyrimidin-5-yl)methyl)formamido)-5-hydroxypent-2-en-3-yl) phenanthrene-9-carbothioate]: the “Fold increase in riboswitch 15D10-regulated luciferase expression, AML” value in the assay on riboswitch 15D10 [1] was found to be 95.3 fold. Further, in the assay with riboswitch 15D10 [2], the “Fold increase in riboswitch 15D10-regulated luciferase expression, HEK” value worked out at 10.2 fold. As to `C/C(=C(\CCO)SC(=O)c1ccc(F)c2ccccc12)N(C=O)Cc1cnc(C)nc1N` [Compound M44, (Z)—S-(2-(N-((4-amino-2-methylpyrimidin-5-yl)methyl)formamido)-5-hydroxypent-2-en-3-yl) 4-fluoronaphthalene-1-carbothioate], the fold induction at 50 µM was determined as 314 in the assay with riboswitch 15D10 [1] and 177 in the assay with riboswitch 15D10 [2].

As to `C/C(=C(\CCO)SC(=O)c1cccc2cccc(F)c12)N(C=O)Cc1cnc(C)nc1N` [Compound M45, (Z)—S-(2-(N-((4-amino-2-methylpyrimidin-5-yl)methyl)formamido)-5-hydroxypent-2-en-3-yl) 8-fluoronaphthalene-1-carbothioate], the results for the fold induction at 50 µM with riboswitch 15D10 [1] and in the assay with riboswitch 15D10 [2] were 2.9 and 1.3, respectively. Taken in the same sequence, the figures for `C/C(=C(\CCO)SC(=O)c1cccc2cccc(C)c12)N(C=O)Cc1cnc(C)nc1N` [Compound M46, (Z)—S-(2-(N-((4-amino-2-methylpyrimidin-5-yl)methyl)formamido)-5-hydroxypent-2-en-3-yl) 8-methylnaphthalene-1-carbothioate] were 6 and 1.3. On the same counts, the results for `COc1ccc(C(=O)S/C(CCO)=C(/C)N(C=O)Cc2cnc(C)nc2N)c2ccccc12` [Compound M47, (Z)—S-(2-(N-((4-amino-2-methylpyrimidin-5-yl)methyl)formamido)-5-hydroxypent-2-en-3-yl) 4-methoxynaphthalene-1-carbothioate] are 85.1 and 25.3. Taken in the same sequence, the figures for `C/C(=C(\CCO)SC(=O)c1ccc2ccccc2c1)N(C=O)Cc1cnc(C)nc1N` [Compound M49, (Z)—S-(2-(N-((4-amino-2-methylpyrimidin-5-yl)methyl)formamido)-5-hydroxypent-2-en-3-yl) naphthalene-2-carbothioate] were 202 and 414. For `C/C(=C(\CCO)SC(=O)c1ccc2c(c1)C(C)(C)CCC2(C)C)N(C=O)Cc1cnc(C)nc1N` [Compound M50, (Z)—S-(2-(N-((4-amino-2-methylpyrimidin-5-yl)methyl)formamido)-5-hydroxypent-2-en-3-yl) 5,5,8,8-tetramethyl-5,6,7,8-tetrahydronaphthalene-2-carbothioate], the fold induction at 50 µM with riboswitch 15D10 [1] stood at 142; in the assay with riboswitch 15D10 [2] it was 93.5. Taken in the same sequence, the figures for `C/C(=C(\CCO)SC(=O)c1ccc2ccccc2c1Br)N(C=O)Cc1cnc(C)nc1N` [Compound M51, (Z)—S-(2-(N-((4-amino-2-methylpyrimidin-5-yl)methyl)formamido)-5-hydroxypent-2-en-3-yl) 1-bromonaphthalene-2-carbothioate] were 189 and 392.
